Legend:
mouse jejunum = conditions: in vivo
adenylate cyclase-cAMP = assay: cAMP assay in human enteroid monolayers exposed to FSK; assay type: cell-based; conditions: nanoparticles with 250-nM peptide, FSK (10 μM) 45 min, CP-2 vs N3SP-1Δ7
Description: Human jejunal enteroid monolayers on Transwell inserts (Corning Cat #: 3470) were differentiated for 5 days and then in serum-free media were exposed apically to nanoparticles containing either 250-nM CP-2 or N3SP-1Δ7. The peptide and polymer in PBS were prepared just before use, allowed to combine for 10 min before being added to the apical surface of enteroid monolayers at room temperature. Monolayers were incubated for 4 hours at 37° C., 5% CO2 incubator before the nanoparticles were removed, then monolayers were washed 3 times with cold PBS and changed to differentiation media and moved to a 37° C. incubator. Differentiation media was removed 24 hours later and washed twice with CMGF-media (Advanced DMEM/F12 with 10-mM Hepes, 10-mM GlutaMax, and 1000 Units/mL Penn/Strep). Next, 100 μL of CMGF-media containing 10-mM Theophylline, 50-μM Cilostazol and 50-μM Rolipram was added to the apical and basolateral surfaces followed by exposure to FSK (10 μM) at 37° C., 5% CO2, for 45 min before apical and basolateral media were collected and cells were lysed in 200-μL 0.1 M HCl for cAMP analysis. CAMP in apical, basolateral, and cells was determined using nonradioactive, CAMP-ELISA kits from ENZO Life Sciences (Loerrach, German), using the acetylation protocol in which the yellow-colored product is inversely proportional to the amount of CAMP present in the sample.

mouse ileal loops = assay: Basal fluid absorption in closed mouse ileal loops, nanoparticle-conjugated peptides, with or without Tenapanor; assay type: in vivo; conditions: for residual fluid / fluid absorption in closed ileal loops compared to CP2: nanoparticle conjugated peptide 400 nM for 4 h, then 150-μL PBS for 30 min
Description: All in vivo studies were performed on 8-12 week old C57B1/6N mice anesthetized with isofluorane and kept at 37° C. via heating lamps and rectal thermal probes.
Effect on basal fluid transport and effect of Tenapanor. Mice operated on as above had 3-4 cm closed ileal loops inoculated with 150-μL PBS containing 400-nM nanoparticle-CP-2 or -N3SP-1Δ7. After 4 h, the loops were drained and inoculated with 150-μL PBS. 30 min later, the animals were sacrificed and loop weight/length determined. In parallel studies, Tenapanor (10 μM) was present in both incubation periods. Similar to the BODIPY-conjugated peptide studies, the effects of nanoparticle-CP-2 or N3SP-1Δ7 (4 μM) compared to PBS alone were determined on net fluid secretion produced by inoculation of 0.1-μg CTx. The nanoparticle-peptides plus 0.1-μg CTx in 150-μL PBS were inoculated in 3-4 cm long closed ileal loops. Additional controls included loops exposed only to 150-μL PBS and those only exposed to the CTx/PBS. 4 h later, the animals were sacrificed and loop weight/cm length was determined.

[1] = biological target: NHERF2 binding to NHE3 C-terminal peptides (Homo sapiens, UniProt Q15599); assay: NHE3 peptide-NHERF2 overlay assay; conditions: peptide at 5 times the concentration of NHERF2 and MBP-NHE3 fusion peptides, n=5
Description: Two NHE3 C-terminal peptides containing the N3SP-1 sequence were separated on SDS-Page gradient gels and purified NHERF binding determined. Equal concentrations of NHE3 peptides and NHERF2 were used. Prior to NHERF2 addition, the blots were overlayed with 5× the concentration of N3SP-1Δ7 vs CP2.
Binding of purified full-length GST-NHERF2 to two NHE3 C-terminal peptides that contain the N3SP-1 sequence was determined in the presence of equal concentrations of CP-2 compared to N3SP-1Δ7. CP-2 and N3SP-1Δ7 peptides were used at 5 times the concentration of the NHERF2 fusion protein and the MBP-NHE3 fusion peptides.

[2] = system: differentiated human enteroid monolayers; assay: Nanoparticle-peptide uptake in human enteroid monolayers (confocal microscopy); assay type: cell-based; conditions: apical addition, 2 μM, 4 h uptake, differentiated human enteroids
Description: […] After varying times from 15 min to 4 hours, enteroids were washed three times with PBS to remove extracellular nanoparticles and wells were replenished with fresh serum-containing media.
At varying times after nanoparticle addition up to overnight, enteroids were serum-starved for 2 hours then fixed in 4% paraformaldehyde for 30 minutes. After washing with PBS, formaldehyde was neutralized with 20-mM glycine. Enteroids were then permeabilized in 0.1% saponin, 1% BSA for 30 minutes. Fixed and permeabilized enteroids were stained for biotinylated peptide using streptavidin conjugated AlexaFluor 488 (1:100) and Hoechst stain (1:200). Enteroids were thoroughly washed with PBS and mounted onto microscope slides. Uptake was visualized using an Olympus FV3000RS confocal microscope and 40× objective (Olympus, Tokyo, Japan).

Chain of NHERF2 binding to NHE3 C-terminal peptides (Q15599 whole entry, the tested form may be a part): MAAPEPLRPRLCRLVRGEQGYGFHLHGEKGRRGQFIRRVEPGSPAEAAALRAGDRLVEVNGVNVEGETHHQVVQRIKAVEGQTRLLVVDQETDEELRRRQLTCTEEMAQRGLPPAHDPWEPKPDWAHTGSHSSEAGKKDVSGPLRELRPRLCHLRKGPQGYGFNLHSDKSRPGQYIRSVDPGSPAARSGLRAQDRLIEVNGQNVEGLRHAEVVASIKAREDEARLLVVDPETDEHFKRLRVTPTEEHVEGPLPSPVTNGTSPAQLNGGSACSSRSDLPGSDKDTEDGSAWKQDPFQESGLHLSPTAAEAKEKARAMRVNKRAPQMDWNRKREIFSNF

N3SP-1 lacking first seven N-terminal amino acids: RPSTVEASVSYLLRESASAVCLDMQSLEQRR [Peptide N3SP-1Δ7]
effect on CTx-stimulated net fluid secretion (loop weight/cm) (mouse jejunum): did not alter the efficacy | FSK-increased intracellular cAMP (adenylate cyclase-cAMP): similar | residual fluid / fluid absorption in closed ileal loops compared to CP2 (mouse ileal loops): increased fluid absorption | residual fluid / fluid absorption in closed ileal loops compared to CP2 (mouse ileal loops; listed as N3SP-147): significantly less amount of residual fluid | residual fluid in presence of Tenapanor, CP2 vs N3SP-1Δ7 (mouse ileal loops; nanoparticle conjugated peptide 400 nM, Tenapanor (10 μM) in both incubation periods): no difference in residual fluid | NHERF2 binding to NHE3 C-terminal peptides compared to control peptide CP-2 [1]: preferentially reduces NHERF2 binding | NHERF2 binding to NHE3 C-terminal peptides compared to control peptide CP-2 ([1]; listed as N3SP-147): significantly reduced NHERF2 binding | uptake and location in enteroid monolayers [2]: lack of uptake

Source: US20260217768A1, “NANOPARTICLE-NHE3 PEPTIDE TO TREAT DIARRHEA” (The Johns Hopkins University, priority 2023, published 2026)
